Laboratory results as given in patent US7488758B2 (Teva Pharmaceutical Fine Chemicals, S.r.l., priority 2004, dated 2009).
Read-outs that look alike come from different tables or passages of the source.

Details: for water content: after exposure at about 100% relative humidity for one week, hydrochloride; for water absorption, outcome in words: one-week exposure at 100% relative humidity; for LOD (%) (water content by TGA) / Polymorph by XRD: one week exposure
Protocol: After each exposure the water content was determined by Thermal Gravimetric Analysis (TGA) and reported as loss on drying (LOD) as a weight percentage and the crystal structure was determined by X-ray Diffraction (XRD).
The X-Ray diffraction (XRD) analysis was conducted using an ARL X-Ray powder diffractometer (model X'TRA-030) equipped with a Peltier detector, round standard aluminum sample holder with round zero background, and quartz plate. The scanning parameters were from a range of about 2-40 degree two θ (±0.2 degrees) and a continuous scan at a rate of about 3 degrees/min.
Thermal Gravimetric Analysis (TGA) was conducted using a Mettler Toledo TGA/SDTA 851^e using a sample weight of about 7-15 mg, a heating rate of about 10° C. min. under a N2 stream at a N2 flow rate of about 50 ml/min. The samples were scanned at a range between about 30° C. to about 250° C.

Row | SMILES | water content | water absorption, outcome in words | LOD (%) (water content by TGA) (RH 0%) | LOD (%) (water content by TGA) (RH 20%) | LOD (%) (water content by TGA) (RH 40%) | LOD (%) (water content by TGA) (RH 60%) | LOD (%) (water content by TGA) (RH 80%) | Polymorph by XRD (RH 80%) | LOD (%) (water content by TGA) (RH 100%) | Polymorph by XRD (RH 100%)
1 | CC(C)(C)NC[C@H](O)c1ccc(O)c(CO)c1.Cl [Polymorph A, (R)-α^1-[[(1,1-dimethylethyl)amino]methyl]-4-hydroxy-1,3-benzenedimethanol hydrochloride, reference compound] | about 34% | absorbed sufficient water to dissolve the polymorph |  |  |  |  |  |  |  | 
2 | CC(C)(C)NC[C@H](O)c1ccc(O)c(CO)c1.Cl [Polymorph B, (R)-α^1-[[(1,1-dimethylethyl)amino]methyl]-4-hydroxy-1,3-benzenedimethanol hydrochloride] | about 36% | absorbed sufficient water to dissolve the polymorph | 0.21 | 0.25 | 0.25 | 0.30 | 0.48 | A >> B | 36.0 | only Polymorph A was detected
